Results published in the CheMixHub viscosity set.
Where “and” joins values, the source holds several entries; their conditions need not be identical. Equal entries are not always repeated.

Experiment: xn = mol fraction of the nth substance listed

C1COCCO1 + O
Conditions	viscosity
303.15 K, 101.3 kPa, x2 = 0.2053	1.163 mPa·s
303.15 K, 101.3 kPa, x2 = 0.3758	1.322 mPa·s and 1.321 mPa·s
303.15 K, 101.3 kPa, x2 = 0.7952	1.738 mPa·s
303.15 K, 101.3 kPa, x2 = 0.8661	1.58 mPa·s and 1.579 mPa·s
303.15 K, 101.3 kPa, x2 = 0.9391	1.221 mPa·s
303.15 K, 101.3 kPa, x2 = 0.9742	0.9855 mPa·s and 0.9853 mPa·s
303.15 K, 101.33 kPa, x1 = 0.0222	0.959 mPa·s
303.15 K, 101.33 kPa, x1 = 0.0486	1.137 mPa·s
303.15 K, 101.33 kPa, x1 = 0.0806	1.332 mPa·s
303.15 K, 101.33 kPa, x1 = 0.12	1.521 mPa·s
303.15 K, 101.33 kPa, x1 = 0.143	1.608 mPa·s
303.15 K, 101.33 kPa, x1 = 0.17	1.674 mPa·s
303.15 K, 101.33 kPa, x1 = 0.2	1.726 mPa·s
303.15 K, 101.33 kPa, x1 = 0.235	1.75 mPa·s
303.15 K, 101.33 kPa, x1 = 0.25	1.749 mPa·s
303.15 K, 101.33 kPa, x1 = 0.275	1.74 mPa·s
303.15 K, 101.33 kPa, x1 = 0.323	1.704 mPa·s
303.15 K, 101.33 kPa, x1 = 0.334	1.685 mPa·s
303.15 K, 101.33 kPa, x1 = 0.38	1.634 mPa·s
303.15 K, 101.33 kPa, x1 = 0.45	1.538 mPa·s
303.15 K, 101.33 kPa, x1 = 0.5	1.46 mPa·s
303.15 K, 101.33 kPa, x1 = 0.537	1.417 mPa·s
303.15 K, 101.33 kPa, x1 = 0.648	1.282 mPa·s
303.15 K, 101.33 kPa, x1 = 0.716	1.215 mPa·s
303.15 K, 101.33 kPa, x1 = 0.795	1.153 mPa·s
303.15 K, 101.33 kPa, x1 = 0.846	1.125 mPa·s
303.15 K, 101.33 kPa, x1 = 0.918	1.098 mPa·s
308.15 K, 101.33 kPa, x1 = 0.0222	0.859 mPa·s
308.15 K, 101.33 kPa, x1 = 0.0486	1.014 mPa·s
308.15 K, 101.33 kPa, x1 = 0.0806	1.184 mPa·s
308.15 K, 101.33 kPa, x1 = 0.12	1.349 mPa·s
308.15 K, 101.33 kPa, x1 = 0.143	1.419 mPa·s
308.15 K, 101.33 kPa, x1 = 0.17	1.479 mPa·s
308.15 K, 101.33 kPa, x1 = 0.2	1.525 mPa·s
308.15 K, 101.33 kPa, x1 = 0.235	1.549 mPa·s
308.15 K, 101.33 kPa, x1 = 0.25	1.553 mPa·s
308.15 K, 101.33 kPa, x1 = 0.275	1.546 mPa·s
308.15 K, 101.33 kPa, x1 = 0.323	1.518 mPa·s
308.15 K, 101.33 kPa, x1 = 0.334	1.503 mPa·s
308.15 K, 101.33 kPa, x1 = 0.38	1.46 mPa·s
308.15 K, 101.33 kPa, x1 = 0.45	1.38 mPa·s
308.15 K, 101.33 kPa, x1 = 0.5	1.317 mPa·s
308.15 K, 101.33 kPa, x1 = 0.537	1.282 mPa·s
308.15 K, 101.33 kPa, x1 = 0.648	1.17 mPa·s
308.15 K, 101.33 kPa, x1 = 0.716	1.112 mPa·s
308.15 K, 101.33 kPa, x1 = 0.795	1.06 mPa·s
308.15 K, 101.33 kPa, x1 = 0.846	1.036 mPa·s
308.15 K, 101.33 kPa, x1 = 0.918	1.017 mPa·s
313.1 K, 101 kPa, x2 = 0.228	0.97 mPa·s
313.1 K, 101 kPa, x2 = 0.2741	0.989 mPa·s
313.1 K, 101 kPa, x2 = 0.4187	1.047 mPa·s
313.1 K, 101 kPa, x2 = 0.7038	1.368 mPa·s
313.1 K, 101 kPa, x2 = 0.8099	1.376 mPa·s
313.1 K, 101 kPa, x2 = 0.8346	1.32 mPa·s
313.1 K, 101 kPa, x2 = 0.8791	1.229 mPa·s
313.1 K, 101 kPa, x2 = 0.9194	1.083 mPa·s
313.1 K, 101 kPa, x2 = 0.9508	0.937 mPa·s
313.1 K, 101 kPa, x2 = 0.9786	0.786 mPa·s
313.15 K, 101.3 kPa, x2 = 0.0459	0.9391 mPa·s
313.15 K, 101.3 kPa, x2 = 0.09407	0.9443 mPa·s
313.15 K, 101.3 kPa, x2 = 0.2053	0.9839 mPa·s
313.15 K, 101.3 kPa, x2 = 0.3758	1.1 mPa·s
313.15 K, 101.3 kPa, x2 = 0.7952	1.377 mPa·s
313.15 K, 101.33 kPa, x1 = 0.0222	0.776 mPa·s
313.15 K, 101.33 kPa, x1 = 0.0486	0.914 mPa·s
313.15 K, 101.33 kPa, x1 = 0.0806	1.061 mPa·s
313.15 K, 101.33 kPa, x1 = 0.12	1.199 mPa·s
313.15 K, 101.33 kPa, x1 = 0.143	1.265 mPa·s
313.15 K, 101.33 kPa, x1 = 0.17	1.322 mPa·s
313.15 K, 101.33 kPa, x1 = 0.2	1.365 mPa·s
313.15 K, 101.33 kPa, x1 = 0.235	1.386 mPa·s
313.15 K, 101.33 kPa, x1 = 0.25	1.383 mPa·s
313.15 K, 101.33 kPa, x1 = 0.275	1.384 mPa·s
313.15 K, 101.33 kPa, x1 = 0.323	1.366 mPa·s
313.15 K, 101.33 kPa, x1 = 0.334	1.352 mPa·s
313.15 K, 101.33 kPa, x1 = 0.38	1.316 mPa·s
313.15 K, 101.33 kPa, x1 = 0.45	1.249 mPa·s
323.1 K, 101 kPa, x2 = 0.228	0.836 mPa·s
323.1 K, 101 kPa, x2 = 0.2741	0.85 mPa·s
323.1 K, 101 kPa, x2 = 0.4187	0.888 mPa·s
323.1 K, 101 kPa, x2 = 0.591	1.063 mPa·s
323.1 K, 101 kPa, x2 = 0.7038	1.123 mPa·s
323.1 K, 101 kPa, x2 = 0.8099	1.122 mPa·s
323.1 K, 101 kPa, x2 = 0.8346	1.078 mPa·s
323.1 K, 101 kPa, x2 = 0.8791	1.006 mPa·s
323.1 K, 101 kPa, x2 = 0.9194	0.889 mPa·s
323.1 K, 101 kPa, x2 = 0.9508	0.774 mPa·s
323.1 K, 101 kPa, x2 = 0.9786	0.652 mPa·s
